Legend:
ITK-SYK^+PD-1− lymphoma = assay: Torin-1 inhibitor treatment in vivo of lymphoma-bearing NSG mice; set-up: species or system mouse
Excerpt: FIGS. 2A-2F PD-1 represses mTOR and HIF1α in pre-malignant cells. […] White arrows indicate spleens. Color intensity represents the calculated MBq/ml uptake of ^18F-FDG. SUV, standardized uptake value ^18F-FDG, ^18F-fluordesoxyglucose. […] SUVmax denotes the maximum signal found in a single voxel across the entire tumor lesion. P=one-way ANOVA and two-sided Student's t-test. Shown are the mean±SEM and individual data points. […] CSI, chemical shift imaging. ROI, region of interest. […] P=two-sided Student's t-test. Shown are the mean±SD and individual data points. […] Spleen-derived single-cell suspensions were generated from ITK-SYK^CD4-creERT2 mice on d5 after TAM. Before fixation, anti-PD-L1 or control antibodies were added for four hours in vitro. […] On day 0, NSG mice received 1,000 ITK-SYK-expressing eGFP+ cells from an ITK-SYK^CD4-creERT2; Pdcd1^−/− mouse, FACS-sorted on d5 after TAM. Mice received 6 mg/kg Torin-1 or vehicle daily via intraperitoneal injection (n=6 mice per group) from day 3 p.i. on. P=two-sided log-rank test. FIG. 2A, Representative mice from two independent experiments. FIG. 2B, Pooled data from two independent experiments. FIG. 2C, Representative amplitudes from one experiment. FIG. 2D, Pooled data from two independent experiments. FIG. 2E, Representative data from two independent experiments with two biological replicates per group. […]

H3K27 acetylation = assay: Flow cytometry for H3K27ac after in vitro culture with inhibitors; format: cell-based, mouse; conditions: exogenous acetate 100 μM; FIG. 11E
Excerpt: Data are normalized to viable cell number and z-scores per metabolite. […] P=two-sided Student's t-test. The data are presented as the mean±SEM and individual data points for each animal. Cross indicates death of the animal. […] P=two-sided Student's t-test. Shown are the mean±SD and individual data points. […] Data are presented as mean±SD and individual data points. […] P=paired two-sided Student's t-test. Data are presented as the mean±SD. […] Data was normalized as in (a). P=two-sided Student's t-test. The data are presented as the mean±SEM. […] Experiment as in (h) (n=3 mice genotype). Data was normalized as in (a). P=two-sided Student's t-test. Data are presented as the mean±SD. FIGS. 3-D, Representative data from two independent experiments with n=3 biological replicates per group. FIG. 3E, Representative data from two independent experiments with two biological replicates per group. FIG. 3F, Representative data from two independent experiments. FIG. 3G, Representative data from two independent experiments with three biological replicates per group. FIG. 3H, Representative data from one experiment with four biological replicates per group. FIG. 3I, Representative data from one experiment with three biological replicates per group FIGS. 4A-4H show ACLY is a critical effector molecule downstream of PD-1. […] ITK-SYK^+ cells were FACS-sorted from ITK-[…]2 mice on d5 after TAM and 12 h anti-PD-L1 or isotype control antibody treatment (i.p., 200 μg). P=paired two-sided Student's t-test. Data are presented as the mean±SD. […] Spleen-derived single-cell suspensions were FACS-sorted from ITK-[…]2 mice on d5 after TAM and cultured in vitro overnight with anti-PD-L1 or isotype control antibodies and the PI3K inhibitors (“iPI3K”) Wortmannin (20 nM), LY294002 (20 μM), or DMSO. […] Spleen-derived lymphocytes, FACS-sorted from ITK-[…]2 and ITK-[…]2; Pdcd1^-/- mice on d5 after TAM were incubated for three days in vitro. P=two-sided Student's t-test. Data are presented as the mean±SD. […] Protein lysates were generated after 48 h in vitro culture. RNP, ribonucleoprotein. […] P=two-sided Logrank-test. […] ITK-SYK^+ cells were FACS-sorted from ITK-[…]2 (“Pdcd1^+/+”) and ITK-[…]2; Pdcd1^-/- (“Pdcd1^-/-”) mice on d5 after TAM, fixed, and processed for anti-H3K27ac ChIP-seq analysis. ChIP-seq, chromatin immunoprecipitation sequencing; TSS, transcription start site. FIG. 4B, Representative data from three independent experiments with three biological replicates per group. FIG. 4C, Representative data from two independent experiments with two biological replicates. FIGS. 4D and 4E, Representative data from 3 independent experiments. FIGS. 4F and 4G, Data from one experiment with n=5 mice per group. […] (8752, CST), and assessed by flow cytometry. […]

[1] = system: PDCD1-mutant lymphoma cells (primary CTCL); assay: Inhibitor treatment of human cells in vitro, division index, PDCD1-mutant CTCL cells; format: cell-based; conditions: 2-DG 1 mM, everolimus 0.1 μM, BMS-303141 10 μM; anti-CD3/anti-CD28 beads, 6 days; FIG. 7E
Method: (§1) FIGS. 7A-7H show ACLY dependency and AP-1 activation in human PDCD1 defective T-NHL. […] CNA, copy number aberrations. FIG. 7B GSEA for the indicated gene sets based on RNA-seq data from the 21 CTCL patients shown in (a). NES, normalized enrichment score; FDR, false discovery rate. […] P=one-way ANOVA and two-sided Student's t-test. Shown are the mean±SD and individual data points. […] FACS-sorted malignant cells were stimulated with anti-CD3/anti-CD28 beads, and 2-NBDG uptake was determined at the indicated time points. P=two-sided Student's t-test. Shown are the mean±SEM and individual data points. […] CFSE, carboxyfluorescein succinimidyl ester. P=two-sided Student's t-test. The data are presented as the mean±SEM and individual data points. […] Legend as in (5a). […] FIG. 7H GSEA for the indicated gene sets with RNA-seq data from 21 CTCL PDCD1mut” or “PDCD1 wt, and three patients with hyperprogression. NES, normalized enrichment score; FDR, false discovery rate. FIGS. 7A and 7B, Data from a single experiment with 21 patients. FIGS. 7C and 7D, Data from one experiment with three patients per group and three healthy donors. FIG. 7E, Data from one experiment with three patients and three healthy donors. FIGS. 7F and 7G, Data from one experiment with three patients per group. FIG. 7H, Data from a single experiment.
(§2) Isolation of primary human CTCL cells. This study was approved by the Northwestern University Institutional Review Board. Patients provided informed consent for inclusion in the study. […] The tumor burden for each patient was determined using well-validated clinical markers, taking whichever value was higher between Sezary cell counts or the CD26 negative cell number by clinical flow cytometry. These were analyzed in conjunction with white blood cell and absolute lymphocyte counts.
(§3) Inhibitor treatment of human cells in vitro Malignant CTCL cells and CD4^+ T cells from healthy donors were isolated as previously described. […] After 6 days, the cells were analyzed by flow cytometry, and the division index was determined using the FlowJo proliferation tool (v10.6, FlowJo LLC).

[2] = system: PD-1 wild-type tumors (primary CTCL); assay: Inhibitor treatment of human cells in vitro, division index, PD-1 wild-type CTCL cells; format: cell-based; conditions: 2-DG 1 mM, everolimus 0.1 μM, BMS-303141 10 μM; 6 days; FIG. 7E
Method: as §1, §2, §3

With `CCC(=O)N1CCN(c2ccc(-n3c(=O)ccc4cnc5ccc(-c6cnc7ccccc7c6)cc5c43)cc2C(F)(F)F)CC1` [Torin-1] the “survival of ITK-SYK+PD-1− lymphoma-bearing mice” value (ITK-SYK^+PD-1− lymphoma; NSG mice, Torin-1 intraperitoneal from day 3, 6 mg/kg daily or 10 mg per kg per day 5 days a week, vs vehicle, p=0.0057) was “significantly prolonged survival” and the “mTOR activity within the tumor cells in vivo” value (ITK-SYK^+PD-1− lymphoma; lymphoma-bearing mice, FIG. 10G) was “blocks mTOR activity”.
With `CC(=O)O` [acetate] the “restoration of decreased H3K27ac signals in ACLY inhibitor-treated lymphoma cells” value (H3K27 acetylation) was “not able to restore”.
With `CO[C@H]1C[C@@H]2CC[C@@H](C)[C@@](O)(O2)C(=O)C(=O)N2CCCC[C@H]2C(=O)O[C@H]([C@H](C)C[C@@H]2CC[C@@H](OCCO)[C@H](OC)C2)CC(=O)[C@H](C)/C=C(\C)[C@@H](O)[C@@H](OC)C(=O)[C@H](C)C[C@H](C)/C=C/C=C/C=C/1C` [everolimus] the “viability, division and proliferation of PDCD1-mutant cancer cells (relative division index)” value [1] was “reduced the viability and division” and the “response of stage-matched PD-1 wild-type tumors (relative division index)” value [2] was “resistant”.

Reference: patent publication US20240316012A1, “METHODS FOR TREATING LYMPHOMA” (Northwestern University, priority 2023, published 2024)
